According to ChEMBL document CHEMBL1955843, “Novel hepatitis C virus replicon inhibitors: synthesis and structure-activity relationships of fused pyrimidine derivatives” (Bioorg Med Chem Lett, 2012):

Legend:
Hepatitis C virus [1] = assay: Antiviral activity against Hepatitis C virus subtype 1a infected in HuH7 cells assessed as inhibition of viral replication by RT-PCR analysis in the presence of fetal calf serum; format: functional, organism-based, Hepacivirus hominis; conditions: Huh-7
Hepatitis C virus [2] = assay: Antiviral activity against Hepatitis C virus subtype 1b infected in HuH7 cells assessed as inhibition of viral replication by RT-PCR analysis in the presence of fetal calf serum; format: functional, organism-based, Hepacivirus hominis; conditions: genotype 1b, Huh-7
[3] = Cytotoxicity against human HuH7 cells by MTT assay; format: cell-based, Huh-7; conditions: read-out: TD50 (the source's name)
Hepatitis C virus [4] = assay: Antiviral activity against Hepatitis C virus subtype 1b infected in HuH7 cells assessed as inhibition of viral replication by RT-PCR analysis in the presence of human serum; format: functional, organism-based, Hepacivirus hominis; conditions: genotype 1b, Huh-7
Rattus norvegicus [5] = assay: Oral bioavailability in rat at 2.5 mg/kg; format: ADME, organism-based; conditions: in vivo
Rattus norvegicus [6] = assay: Clearance in rat at 2.5 mg/kg, po and 2.5 mg/kg, iv; format: ADME, organism-based; conditions: in vivo
[7] = Half life in rat at 2.5 mg/kg, po and 2.5 mg/kg, iv; format: ADME, organism-based; conditions: in vivo
[8] = Cmax in rat at 2.5 mg/kg, po; format: ADME, organism-based; design: dose 2.5 mg/kg, route oral; conditions: in vivo
Rattus norvegicus [9] = assay: AUC in rat plasma at 2.5 mg/kg, po; format: ADME, organism-based; design: dose 2.5 mg/kg, route oral; conditions: in vivo
[10] = Ratio of EC50 for HCV subtype 1a to EC50 for HCV subtype 1b; format: functional

| EC50 (Hepatitis C virus [1]) | EC50 (Hepatitis C virus [2]) | Structure (SMILES) | CC50 [3] | further results |
| --- | --- | --- | --- | --- |
| > 50 µM | > 50 µM | CC(=O)Nc1ccc(Sc2ccc(C)cc2Nc2ncnc3nc(C)ccc23)cc1 | > 50 µM | – |
| 4.8 µM | 0.01 µM | CCSc1ncc2c(Nc3cc(C)ccc3Sc3ccc(O)cc3)ncnc2n1 | 46.9 µM | – |
| 7.3 µM | 12 µM | CCOc1ncc2c(Nc3cc(C)ccc3Sc3ccc(O)cc3)ncnc2n1 | 29.7 µM | – |
| 44.5 µM | 13.3 µM | COc1ccc(Sc2ccc(C)cc2Nc2ncnc3nc(C)ccc23)cc1 | 28.6 µM | – |
| 11.3 µM | 3.1 µM | Cc1ccc(Sc2ccc(O)cc2)c(Nc2ncnc3nc(C4CCC4)ccc23)c1 | 31.8 µM | – |
| 18.9 µM | 11.2 µM | Cc1ccc(Sc2ccc(NS(C)(=O)=O)cc2)c(Nc2ncnc3nc(C(C)C)ccc23)c1 | > 50 µM | – |
| 23.4 µM | 0.05 µM | Cc1ccc(Sc2ccc(O)cc2)c(Nc2ncnc3nc(C)ccc23)c1 | > 100 µM | – |
| 2.7 µM | 0.88 µM | Cc1ccc(Sc2ccc(O)cc2)c(Nc2ncnc3nc(C4CCCCC4)ccc23)c1 | > 3.12 µM | – |
| 13.3 µM | 1 µM | Cc1ccc(Sc2ccccc2)c(Nc2ncnc3nc(CC(C)C)ccc23)c1 | 7.5 µM | – |
| 13.8 µM | 0.63 µM | CCCc1ccc2c(Nc3cc(C)ccc3Sc3ccc(NC(C)=O)cc3)ncnc2n1 | > 25 µM | – |
| > 8 µM | > 8 µM | COc1ncc2c(Nc3cc(C)ccc3Sc3ccc(O)cc3)ncnc2n1 | > 8 µM | – |
| > 50 µM | > 50 µM | Cc1ccc(Sc2ccc(O)cc2)c(Nc2ncnc3nc(N(C)C)ncc23)c1 | > 50 µM | – |
| 14.1 µM | 7.3 µM | Cc1ccc(Sc2ccc(O)cc2)c(Nc2ncnc3nc(N4CCOCC4)ncc23)c1 | > 50 µM | – |
| 1.8 µM | 0.018 µM | Cc1ccc(Sc2ccccc2)c(Nc2ccnc3nc(C)ccc23)c1 | 8.6 µM | Ratio EC50 [10]: 100 |
| 47.6 µM | 30 µM | CCNc1ncc2c(Nc3cc(C)ccc3Sc3ccc(O)cc3)ncnc2n1 | > 50 µM | – |
| 15.7 µM | 9.9 µM | Cc1ccc(Sc2ccccc2)c(Nc2cccc3nc(C)ccc23)c1 | 15.9 µM | – |
| 10.3 µM | 3.4 µM | Cc1ccc(Sc2ccccc2)c(Nc2ncnc3nc(C(C)C)ccc23)c1 | 8 µM | – |
| 9.5 µM | 0.32 µM | CCCc1ccc2c(Nc3cc(C)ccc3Sc3ccccc3)ncnc2n1 | 11.8 µM | – |
| – | 1.8 µM | Cc1ccc(Sc2ccccc2)c(Nc2ccnc3cc(C)ccc23)c1 | 2.6 µM | – |

Second part, the compound before the results:

| Structure (SMILES) | EC50 (Hepatitis C virus [1]) | EC50 (Hepatitis C virus [2]) | CC50 [3] | further results |
| --- | --- | --- | --- | --- |
| CCc1ccc2c(Nc3cc(C)ccc3Sc3ccc(NC(C)=O)cc3)ncnc2n1 | > 12.5 µM | 6.9 µM | > 12.5 µM | – |
| Cc1ccc(Sc2ccc(O)cc2)c(Nc2ncnc3nc(C(C)C)ccc23)c1 | 0.17 µM | 0.016 µM | 22.9 µM | EC50 (Hepatitis C virus [4]): 0.17 µM; F (Rattus norvegicus [5]): 10%; CL (Rattus norvegicus [6]): 26.3 mL/min/kg; half-life [7]: 3.1 h; Cmax [8]: 70 nM; AUC (Rattus norvegicus [9]): 1580 ng·h/mL |
| Cc1ccc(Sc2ccc(O)cc2)c(Nc2ncnc3nc(C4CC4)ccc23)c1 | 10.5 µM | 1.6 µM | 17.4 µM | – |
| Cc1ccc(Sc2ccccc2)c(Nc2ncnc3nc(C)ccc23)c1 | 13.3 µM | 3.84 µM | 22.2 µM | – |
| CCc1ccc2c(Nc3cc(C)ccc3Sc3ccc(O)cc3)ncnc2n1 | 62.2 µM | 10 µM | 78 µM | – |
| Cc1ccc(Sc2ccc(O)cc2)c(Nc2ncnc3nc(C(C)(C)C)ccc23)c1 | 4.6 µM | 0.47 µM | 7.1 µM | – |
| CC(=O)Nc1ccc(Sc2ccc(C)cc2Nc2ncnc3nc(C4CC4)ccc23)cc1 | 15.2 µM | 1.7 µM | 29.8 µM | – |
| CC(=O)Nc1ccc(Sc2ccc(C)cc2Nc2ncnc3nc(CC(C)C)ccc23)cc1 | 27.4 µM | 3.3 µM | 38.5 µM | – |
| CCCc1ccc2c(Nc3cc(C)ccc3Sc3ccc(O)cc3)ncnc2n1 | 7.1 µM | 0.25 µM | 31.1 µM | – |
| CC(=O)Nc1ccc(Sc2ccc(C)cc2Nc2ncnc3nc(C4CCC4)ccc23)cc1 | 15.8 µM | 3.7 µM | 49.2 µM | – |
| Cc1ccc(Sc2ccc(F)cc2)c(Nc2ncnc3nc(C)ccc23)c1 | 10.5 µM | 3 µM | 6.1 µM | – |
| Cc1ccc(Sc2ccc(O)cc2)c(Nc2ncnc3nc(Oc4ccccc4)ncc23)c1 | 5.3 µM | 3.5 µM | 17.1 µM | – |
| Cc1ccc(Sc2ccc(O)cc2)c(Nc2ncnc3nc(N4CCCCC4)ncc23)c1 | 22 µM | 2.8 µM | > 50 µM | – |
| COc1ccc(Sc2ccc(C)cc2Nc2ncnc3nc(C(C)C)ccc23)cc1 | 11.4 µM | 1.7 µM | 8.8 µM | – |
| Cc1ccc(Sc2ccc(O)cc2)c(Nc2ncnc3nc(CC(C)C)ccc23)c1 | 14.3 µM | 2.4 µM | 11.2 µM | – |
| Cc1ccc(Sc2ccccc2)c(Nc2ncnc3nc(C4CC4)ccc23)c1 | 10.4 µM | 3.7 µM | 9.9 µM | – |
| CC(=O)Nc1ccc(Sc2ccc(C)cc2Nc2ncnc3nc(C(C)C)ccc23)cc1 | 2.6 µM | 13.8 µM | 28.8 µM | – |
| Cc1ccc(Sc2ccc(F)cc2)c(Nc2ncnc3nc(C(C)C)ccc23)c1 | 3.2 µM | 1.8 µM | 4.8 µM | – |
| Cc1ccc(Sc2ccccc2)c(Nc2ncnc3nc(C4CCC4)ccc23)c1 | 6.1 µM | 1.6 µM | 3.6 µM | – |
| CCc1ccc2c(Nc3cc(C)ccc3Sc3ccccc3)ncnc2n1 | 18.9 µM | 3.4 µM | 22.7 µM | – |
